The test system of data set [1] is A549 cells. In words: MTT cytotoxicity assay, A549. The settings on record: read-out: cytotoxicity IC50; A549, lung; MTT, 48 h treatment; spread in brackets. The text has this:
(§1) (a) Dulbecco's Modified Eagle Medium (DMEM), Dulbecco's phosphate buffered saline (DPBS), fetal bovine serum (FBS) and 0.25% trypsin/EDTA solutions were purchased from Cellgro (Manassas, Va.). Penicillin-streptomycin solutions were purchased from Mediatech (Manassas, Va.). (b) HeLa (CCL-2TM) cells, A549, A2870, A2870/CP70, MCF-7, PC-3, and MRC-5 cells were purchased from American Type Culture Collection (ATCC, Manassas, Va., USA). (c) HCT116 cells were kindly donated by Laura Trudel (MIT). HeLa, A549, MCF-7, and MRC-5 cells were cultured using DMEM supplemented with 10% FBS and 1% penicillin-streptomycin. A2870, A2870/CP70, and PC-3 cells were cultured in RPMI supplemented with 10% FBS and 1% penicillin-streptomycin. HCT116 cells were cultured in McCoy's supplemented with 10% FBS and 1% penicillin-streptomycin. All cell-culture experiments were performed in the aforementioned media in an incubator operating at 37° C. and in the presence of a humidified atmosphere containing 5.0% CO2. Cells were harvested using a 0.25% trypsin/EDTA solution.
The cytotoxicity of the compounds was assessed by means of the MTT assay (MTT=3-(4,5-dimethyl-2-thiazolyl)-2,5-diphenyl-2H-tetrazolium bromide). Typically, on day one, ˜1×10^3 cells were seeded into 96-well plates in 100 μL media per well. […] The optical density for each well at 550 nm was measured with a microplate reader.
(Tetrazolium assays rely on reduction of a dye to a coloured formazan, in cell work by metabolically active cells.)

For the next data set, the system named is PC-3 cells. In words: MTT cytotoxicity assay, PC-3. The settings on record: read-out: cytotoxicity IC50; PC-3, prostate; MTT, 48 h treatment; spread in brackets.
Description: as §1
The cytotoxicity of the compounds was assessed by means of the MTT assay (MTT=3-(4,5-dimethyl-2-thiazolyl)-2,5-diphenyl-2H-tetrazolium bromide). Typically, on day one, ˜1×10^3 cells were seeded into 96-well plates in 100 μL media per well. The last row of the plate was left empty as a control for background absorption. The cells were allowed to grow for 24 h in the incubator at 37° C. On day two, a series of drug dilutions in growth media were prepared immediately prior to cell treatment. The media in the wells of the 96 plates were replaced with 100 μL of growth media containing appropriate drug concentrations. The cells were treated for 48 h at 37° C. in the incubator. On day four, a stock solution of MTT (5 mg/mL in PBS buffer) was diluted with media so that, when 100 μL of the media was added to each well, 10 μL of MTT stock was applied. […] The optical density for each well at 550 nm was measured with a microplate reader.

Data set [2] concerns MRC-5 non-tumorigenic lung fibroblast cells. In words: MTT cytotoxicity assay, MRC-5. The settings on record: read-out: cytotoxicity IC50; MRC-5, lung normal; MTT, 48 h treatment; spread in brackets.
Description: as §1
The cytotoxicity of the compounds was assessed by means of the MTT assay (MTT=3-(4,5-dimethyl-2-thiazolyl)-2,5-diphenyl-2H-tetrazolium bromide). Typically, on day one, ˜1×10^3 cells were seeded into 96-well plates in 100 μL media per well. The last row of the plate was left empty as a control for background absorption. The cells were allowed to grow for 24 h in the incubator at 37° C. On day two, a series of drug dilutions in growth media were prepared immediately prior to cell treatment. The media in the wells of the 96 plates were replaced with 100 μL of growth media containing appropriate drug concentrations. The cells were treated for 48 h at 37° C. in the incubator. On day four, a stock solution of MTT (5 mg/mL in PBS buffer) was diluted with media so that, when 100 μL of the media was added to each well, 10 μL of MTT stock was applied. The cells were incubated for 2 h and then all the media was replaced with 100 μL of DMSO to dissolve the purple MTT-formazan crystals. The optical density for each well at 550 nm was measured with a microplate reader.

For data set [3], the system named is A549 cells. In words: JC-1 mitochondrial membrane potential assay. Type of data set: cell-based. On the procedure:
To investigate the effect of Pt(IV)(α-TOS)(OEt) on mitochondria, changes in the mitochondrial membrane potential were assessed by the JC-1 assay. JC-1 (5,5′,6,6′-tetrachloro-1,1′3,3′-tetraethylbenzimidazolylcarbocyanine iodide) is a positively charged lipophilic dye, which accumulates in the mitochondria of healthy cells as red-emitting aggregates. When the mitochondrial membrane is compromised, JC-1 de-aggregates into monomeric forms that emit green fluorescence. […] These findings were confirmed using flow cytometry. A large population of untreated and Pt(IV)(α-TOS)(OEt)-treated A549 cells were examined.
In order to monitor the cell cycle, flow cytometry studies were carried out. A549 cells were incubated with and without the test compounds for 24 and 48 h at 37° C. Cells were harvested from adherent cultures by trypsinization and combined with all detached cells from the incubation medium to assess total cell viability. Following centrifugation at 1000 rpm for 5 min, cells were washed with PBS and then fixed with 70% ethanol in PBS. Fixed cells were collected by centrifugation at 2500 rpm for 3 min, washed with PBS and centrifuged as before. Cellular pellets were re-suspended in 50 μg/mL propidium iodide (Sigma) in PBS for nucleic acids staining and treated with 100 μg/mL RNaseA (Sigma). DNA content was measured on a FACSCalibur-HTS flow cytometer (BD Biosciences) using laser excitation at 488 nm and 20,000 events per sample were acquired. Cell cycle profiles were analysed using the ModFit software. For the apoptosis experiments, the Annexin V-FITC Early Apoptosis Detection Kit (Cell Signaling Technology) was used. […] The samples were kept on ice prior to being read on the FACSCalibur-HTS flow cytometer (BD Biosciences) (20,000 events per sample were acquired). Cell populations were analysed using the FlowJo software (Tree Star). […] The cells were incubated for 30 min, harvested, and analysed by using the FACSCalibur-HTS flow cytometer (BD Biosciences) (20,000 events per sample were acquired). […] Cell populations were analysed using the FlowJo software (Tree Star).

Usually IC50 stands for the point on the concentration scale where inhibition reaches its midpoint. For `CC[O][Pt]([NH2])([NH2])([Cl])([Cl])[O]C(=O)CCC(=O)Oc1c(C)c(C)c2c(c1C)CCC(C)(CCCC(C)CCCC(C)CCCC(C)C)O2` (stereo not drawn) [Pt(IV)(α-TOS)(OEt)], the IC50 in the data set with A549 cells [1] came to 1300 nM; with PC-3 cells, 2500 nM; in data set [2] it was 5300 nM. Further, the “cells expressing green JC-1 fluorescence (FL1-H), flow cytometry” value with A549 cells [3] (25 μM, 4 h) is listed as “a marked increase in cells expressing green fluorescence”. In the data set on A549 cells [3] (cisplatin or Pt(IV)(α-TOS)(OEt) at 20 μM, 4 hours), the “JC-1 fluorescence (mitochondrial membrane disruption), microscopy” value is “A similar phenomenon was observed”.

The values above are taken from patent US9133225B2, “Dual targeting anticancer agents” (priority 2013, dated 2015).
